Assay results: patent US7378403B2, “Akt inhibitors, pharmaceutical compositions, and uses thereof” (The United States of America as represented by the …, priority 2002, dated 2008)

How the values were obtained:
Format in all cases: cell-based
p38 = experiment: Immunoblotting with phospho-specific antibodies: p38 phosphorylation; settings: H1703 (FIG. 3A) or H157 cells (FIG. 3B)
Experimental: (§1) The SH compounds were tested against Akt and other kinases that are either upstream of Akt (PDK-1), downstream of Akt (c-Raf, 4EBP-1, p70S6K, FKHR, GSK-3, and/or AFX), or downstream of Ras (ERK, p38). Immunoblotting was carried out with phospho-specific antibodies to assess activation state of the kinases, and with native antibodies to assess changes in protein levels. Similar results were obtained with the H1703 (FIG. 3A) or H157 cells (FIG. 3B). […] Upstream of Akt, phosphorylation of PDK-1 was not affected by any SH compound. Of the downstream substrates, c-Raf phosphorylation and 4EBP-1 phosphorylation were decreased most. Decreased c-Raf phosphorylation correlated with increased ERK and p38 phosphorylation, which is consistent with the inhibitory effect of S259 phosphorylation by Akt on c-Raf activity.

[1] = system: H1703, H157, and H1155 cells; experiment: Apoptosis in cell lines with high levels of Akt activity; settings: FIG. 4
Experimental: (§2) Cell lines containing high or low endogenous levels of Akt activity were treated with SH compounds and the cell apoptosis was measured.

Akt = experiment: Immunoblotting with antibodies against Akt phosphorylated at S473 and native Akt after administration of compounds to cancer cell lines; settings: for native Akt levels (immunoblot) / Akt phosphorylation at S473 (immunoblot): FIG. 1D; for decreasing Akt phosphorylation: panel of cancer cell lines (summary)
Experimental: The SH compounds were tested against Akt and other kinases that are either upstream of Akt (PDK-1), downstream of Akt (c-Raf, 4EBP-1, p70S6K, FKHR, GSK-3, and/or AFX), or downstream of Ras (ERK, p38). Immunoblotting was carried out with phospho-specific antibodies to assess activation state of the kinases, and with native antibodies to assess changes in protein levels.

4EBP-1 = experiment: Immunoblotting with phospho-specific antibodies: 4EBP-1 phosphorylation; settings: summary, cell line not specified
Experimental: as §1

tuberin = experiment: Phosphorylation of tuberin
From the text: SH5, 6, 23, 24, and 25 are very active in decreasing Akt phosphorylation in a panel of cancer cell lines. These compounds decrease Akt phosphorylation as well as Akt kinase activity, with IC50s in the low micromolar range. These compounds appear to be specific for Akt, as the phosphorylation of the upstream kinase, PDK-1, is unaffected by any of the SH compounds, as is […]. Cell-line specific, selective inhibition of phosphorylation of substrates downstream of Akt, such as c-Raf, 4EBP-1, GSK-3, and/or FKHR/AFX was observed. […] Phosphorylation of tuberin, 4EBP-1 and P70S6K (substrates that control protein translation) was inhibited by SH23, 24, and 25; and SH5-6 inhibited phosphorylation of tuberin and 4EBP-1. Phosphorylation of forkhead family members AFX and FKHR that control transcription was inhibited by SH23 or 25. Phosphorylation of GSK-3 and c-Raf was attenuated by SH23-25.

MB468 cells = experiment: Apoptosis in MB468 cells; settings: MB468 cells (data not shown)
Experimental: as §2

H1355 and A549 cells = experiment: Apoptosis in cells with low endogenous Akt levels
Experimental: as §2

p70S6K = experiment: Immunoblotting with phospho-specific antibodies: p70S6K phosphorylation
Experimental: as §1

AFX = experiment: Immunoblotting with phospho-specific antibodies: AFX phosphorylation
Experimental: as §1

FKHR = experiment: Immunoblotting with phospho-specific antibodies: FKHR phosphorylation
Experimental: as §1

[2] = H1703 (FIG. 3A) or H157 cells (FIG. 3B)

| Compound | p38 phosphorylation (p38) | increase of apoptosis [1] | native Akt levels (immunoblot) (Akt) | Akt phosphorylation (Akt; [2]) | native Akt levels (Akt; [2]) | Akt phosphorylation at S473 (immunoblot) (Akt; H1703 cells (wild type PTEN)) | Akt phosphorylation (Akt; all three cell lines, FIG. 1F) | decreasing Akt phosphorylation (Akt) | phosphorylation of 4EBP-1 (4EBP-1) | phosphorylation of tuberin (tuberin) | apoptosis (MB468 cells) | apoptosis (H1355 and A549 cells) | Akt phosphorylation at S473 (immunoblot) (Akt; cell line not specified (H1703, H157)) | Akt phosphorylation at S473 (immunoblot) (Akt; H157 cells (mutant PTEN)) | phosphorylation of P70S6K (p70S6K) | phosphorylation of AFX (AFX) | phosphorylation of FKHR (FKHR) |
| --- | --- | --- | --- | --- | --- | --- | --- | --- | --- | --- | --- | --- | --- | --- | --- | --- | --- |
| CCCCCCCCCCCCCCCCCCOCC(COP(=O)(O)OC1C(O)CC(O)C(O)C1O)OC (centres unmarked) [DPIEL] | decreased | no effect |  |  |  |  |  |  |  |  |  |  |  |  |  |  |  |
| CCCCCCCCCCCCCCCCCCOC[C@H](COP(=O)(O)O[C@H]1[C@H](O)[C@@H](O)[C@H](O)C[C@H]1OC)OC [SH5] |  |  | without affecting | inhibited | without affecting | decreased | completely inhibited | very active | inhibited | inhibited | Increased apoptosis | did not undergo apoptosis |  |  |  |  |  |
| CCCCCCCCCCCCCCCCCCOC[C@H](COP(=O)(O)O[C@@H]1CC[C@@H](O)[C@H](O)[C@H]1O)OC [SH6] |  |  | without affecting | inhibited | without affecting | decreased | completely inhibited | very active | inhibited | inhibited | Increased apoptosis | did not undergo apoptosis |  |  |  |  |  |
| CCCCCCCCCCCCCCCCCCOC[C@H](CO)OC [SH7, reference compound] |  | no effect |  | did not decrease |  |  |  |  |  |  |  | did not undergo apoptosis | lack of decreased phosphorylation |  |  |  |  |
| CCCCCCCCCCCCCCCCCCOC[C@H](COP(=O)(O)O[C@@H]1[C@H](O)[C@H](O)C[C@H](O)[C@H]1O)OC [SH10] |  |  |  | inhibited | without affecting |  |  |  |  |  |  |  |  |  |  |  |  |
| CCCCCCCCCCCCCCCCCCOC[C@H](COP(=O)(O)O[C@H]1[C@H](O)C[C@H](O)C[C@H]1O)OC [SH16] |  |  | without affecting |  |  | decreased |  |  |  |  |  |  |  | All but SH16 |  |  |  |
| CCCCCCCCCCCCCCCCCCOCC(COP(=O)(O)OC1C(OCC(C)C)CC(O)C(O)C1O)OC (centres unmarked) [SH23] |  |  | without affecting |  |  | decreased | completely inhibited | very active | inhibited | inhibited |  |  |  |  | inhibited | inhibited | inhibited |
| CCCCCCCCCCCCCCCCCCOCC(COP(=O)(O)OC1C(OCC2CCCCC2)CC(O)C(O)C1O)OC (centres unmarked) [SH24] |  |  | without affecting |  |  | decreased | completely inhibited | very active | inhibited | inhibited |  |  |  |  | inhibited |  |  |
| CCCCCCCCCCCCCCCCCCOCC(COP(=O)(O)OC1C(O)CCC(O)C1O)OC (centres unmarked) [SH25] |  |  | without affecting |  |  | decreased | completely inhibited | very active | inhibited | inhibited |  |  |  |  | inhibited | inhibited | inhibited |
